The values below are quoted from earlier work in EP2932963A1, “Stable pharmaceutical dosage forms comprising Levothyroxine sodium” (Uni-Pharma Kleon Tsetis Pharmaceutical Laboratories S.A., priority 2014, dated 2015).

As a reminder, the pKa is the pH at which an ionisable group is half protonated.

Read-outs that look alike come from different tables or passages of the source.

For series [1] the following is noted: dependence on pH.

With `N[C@@H](Cc1cc(I)c(Oc2cc(I)c(O)c(I)c2)c(I)c1)C(=O)O` [Levothyroxine], the pKa is given as 9.96 (amino group), 2.4 (carboxyl group) and 6.87 (phenolic group). Also, the aqueous solubility entry in series [1] is “reduces from pH 1 to 3 and increases above pH 7”.
